Reference: patent publication US20240009170A1, “INHIBITION OF GLYCOGEN SYNTHASE KINASE-3 (GSK-3)” (Brown University, priority 2020, published 2024)

How the values were obtained:
[1] = tested on: human colorectal cell lines (HCT-116, HT-29, KM12C); test: Cytokine, chemokine and growth factor profile of tumor cell culture supernatant (Luminex 200); type: cell-based
Method: Collection of cell culture supernatants used in cytokine measurements. Cells were plated at 3.5×10^4 cells in a 48-well plate (Thermo Fisher Scientific, Waltham, MA, USA) in complete medium and incubated at 37° C. with 5% CO2. At twenty-four hours after plating, almost all the tumor cells were adherent to the bottom of the flask and the complete medium was replaced with drug-containing medium. Subsequently, the culture supernatants were collected after forty-eight hours of incubation and were frozen at −80° C. until the measurement of cytokines was performed. The day of analysis, samples were thawed and centrifuged to remove cellular debris.
Human cytokine profiling. Human cell line culture supernatants were analyzed using an R&D systems Human Premixed Multi-Analyte Kit (R&D Systems, Inc., Minneapolis, MN, USA) and a Luminex 200 Instrument (LX200-XPON-RUO, Luminex Corporation, Austin, TX, USA) according to the manufacturer's instructions. Sample levels of TNF-α, 4-1BB/TNFRSF9/CD137, IL-8/CXCL8, Ferritin, IFN-β, IL-10, CCL2/JE/MCP-1, VEGF, CXCL13/BLC/BCA-1, IFN-γ, CCL20/MIP-3 α, CCL3/MIP-1 α, CCL22/MDC, CCL4/MIP-1 β, Fas Ligand/TNFSF6, IL-17/IL-17A, IL-2, BAFF/BLyS/TNFSF13B, GM-CSF, CXCLS/ENA-78, TRANCE/TNFSF11/RANK L, CXCL9/MIG, G-CSF, IFN-γ R1/CD119, VEGFR3/Flt-4, C-Reactive Protein/CRP, CXCL11/I-TAC, IL-21, CXCL14/BRAK, IL-6, Fas/TNFRSF6/CD95, TRAIL R3/TNFRSF10C, IL-4, CCL5/RANTES, PD-L1/B7-H1, CCL7/MCP-3/MARC, Chitinase 3-like 1, CXCL10/IP-10/CRG-2, IL-1β/IL-1F2, IL-7, Prolactin, CCL8/MCP-2, TRAIL R2/TNFRSF10B, M-CSF, IL-15, Granzyme B, IFN-α, TREM-1, IL-12/IL-23 p40, TRAIL/TNFSF10, CCL11/Eotaxin, and IL-18/IL-1F4. Sample values are reported in picograms per milliliter (pg/mL).
Cells were treated with 9-ING-41, a selective and potent small molecule inhibitor of GSK-3β, at doses up to 100 μM for seventy-two hours to determine IC10, IC30, IC50, and IC70. Cytokine, chemokine, and growth factor levels were analyzed in the tumor cell culture supernatants after treatment at IC10, IC30, IC50, and IC70 for forty-eight hours using a Luminex 200 multiplexing instrument.

[2] = tested on: HCT-116 colorectal cancer cells; test: Western blot analysis, HCT-116; type: cell-based, Human
Method: Western blot analysis. Cells were plated in a 6-well plate and incubated overnight before the spent media was replaced with drugged media. Drug treatment lasted for indicated durations. Protein was extracted using radioimmunoprecipitation (RIPA) assay buffer (Cat #R0278, Sigma-Aldrich, St. Louis, MO) containing cOmplete™ Mini, EDTA-free Protease Inhibitor Cocktail (Cat #4693159001, Roche, Basel, Switzerland). Denaturing sample buffer was added, samples were boiled at 95 degrees for 10 minutes. An equal amount of protein lysate was electrophoresed through NuPAGE™ 4 to 12%, Bis-Tris, 1.5 mm, Mini Protein Gels (Invitrogen, Waltham, MA, USA) then transferred to PVDF membranes. The PVDF membrane was blocked with 5% non-fat milk (Sigma-Aldrich, St. Louis, MO, USA) in 1× TTBS. Primary antibodies were incubated with the transferred PVDF membrane in blocking buffer at 4° C. overnight. Secondary antibodies used included goat anti-rabbit IgG (H+L) secondary antibody, HRP (Cat #31460, Invitrogen, Waltham, MA, USA) and goat anti-mouse IgG (H+L) secondary antibody, HRP (Cat #31430, Invitrogen, Waltham, MA, USA). Signal was detected using a Syngene Imaging System.
9-ING-41 treatment decreases survival factor expression while increasing PD-L1 levels in colorectal cancer cell lines. To elucidate the mechanism behind the differential effects of 9-ING-41 on either colorectal cancer or immune cells in co-culture and cytokine profiling assays, the inventors performed Western blot analyses on tumor and immune cells treated with 9-ING-41 over a 72-hour time course.
Treating cells from colorectal cancer cell lines with 1 μM 9-ING-41 decreases Surivin, NF-κB p65, and IκBα while increasing PD-L1 levels in, 9-ING-41 treatment of immune cells increases NIK. Western blot analysis of HCT-116 and HT-29 colorectal cancer cells for expression of indicated proteins after increasing durations of 9-ING-41 treatment (0-72 hours). Western blot analysis of TALL-104 T cells for expression of indicated proteins after increasing durations of 9-ING-41 treatment (0-72 hours). Analysis of Mcl-1 expression in HCT-116 colorectal cancer cells and NK-92 natural killer cells after increasing durations of 9-ING-41 treatment.

GSK-3 = details: cited from earlier work
[3] = tested on: prostate cancer cell lines; details: cited from earlier work

Cn1cc(C2=C(c3coc4ccc(F)cc34)C(=O)NC2=O)c2cc3c(cc21)OCO3 [9-ING-41]
shed PD-L1 ([1]; colorectal cancer cell lines, regression slope analysis, 48 hours): decreases | overall cytokine levels ([1]; increasing doses (IC10-IC70), 48 hours): decreasing trend | VEGF ([1]; increasing doses, 48 hours, supernatant): most prominently decreased | expression of chemokine CXCL14 (BRAK) ([1]; increasing doses, supernatant): increase | macrophage colony-stimulating factor (M-CSF) ([1]; supernatant): decrease | IKKR ([2]; 1 μM, 0-72 hours): No changes | Survivin, NF-κB-inducing kinase (NIK), NF-κB, IKBα, pIKBα, and Bcl-2 ([2]; 1 μM, by the 72-hour timepoint): decreases | cPARP ([2]; 1 μM, until the 48-hour timepoint): little to no cPARP | PD-L1 expression ([2]; as the treatment duration increased): increases | Mcl-1 protein expression ([2]; by the 24-hour timepoint): marked decreases | GSK-3 isoforms inhibited (GSK-3): inhibits both α and β isoforms | potency compared with other GSK-3 inhibitors (GSK-3): significantly more potent | expression of PD-L1 [3]: regulated the expression of PD-L1
